# Laboratory results as given in patent US20010025053A1, “Use of nitric oxid synthase inhibitors for the treatment of diabetes” (Smith Kline Beecham p.l.c., priority 1997, published 2001).
# System: obese db/db mouse
# Assay: obese db/db mouse model of type 2 non-insulin dependent diabetes
# Type: in vivo
# Conditions: obese db/db mice
# Source text: The obese db/db mouse is a genetic model of type 2 non-insulin dependent diabetes which is both insulin resistant and hyperglycaemic. Male animals were obtained at 6 weeks of age. Blood samples were taken by tail tip snip for measurement of pre-treatment blood glucose. Animals were allocated into treated and control groups such that the mean and standard deviation of the fasting blood glucose concentrations of each group was similar.
# On day 0 of the study a group of obese animals and their lean litter mates were killed for measurement of baseline biochemistry and histology. In addition one group of animals (control; n=14) were fed a standard diet and a further group received aminoguanidine (500 mg/kg; n=14) in the same diet. Animals were allowed free access to food and water and their intake measured daily. At weekly intervals 24 hr urine output was also measured. Mice (n=7) were killed at 30 days and 85 days from commencement of treatment. Blood was taken for measurement of glucose and insulin concentrations and the pancreas removed for histological analysis and for measurement of pancreatic insulin.
# [1] = from day 63 compared to day 7, FIG. 1
smiles,measurement,setting,value
"N=C(N)NN [Aminoguanidine, Hydrazinecarboximidamide]",islet morphology,"day 30 of treatment, histology",normal islet morphology was preserved
same,islet insulin content,"day 30 of treatment, vs untreated controls",greater
same,urinary glucose excretion,"from day 35, vs untreated, FIG. 1",lower
same,increase in urine output (polyuria),[1],prevented
same,increase in water intake (polydipsia),[1],prevented
same,pancreatic insulin content relative to untreated animals,treated vs untreated,twice that of the untreated animals
